Measurements from patent publication US20120021434A1, “METHOD FOR TREATING B CELL REGULATED AUTOIMMUNE DISORDERS” (Synta Pharmaceuticals Corp., priority 2005, published 2012).

Assays:
Type in all cases: cell-based
Rel-B = Rel-B nuclear translocation in IFNγ+LPS-stimulated THP1 cells (immunoblot); conditions: 100 nM, 6 h
Procedure: RelB and p52 are two members of Rel family, which are preferentially complexed with each other. To determine the effect of Compound 50 on p52 and Rel-B nuclear translocation, THP1 cells were stimulated with IFNγ+LPS in either the presence or absence of 100 nM Compound 50 and the distribution of p52 and Rel-B was determined by immunoblotting of nuclear at 6 h post-treatment.

p65 = experiment: LPS/IFNγ-induced phosphorylation of p65 in THP1 cells (immunoblot); conditions: THP1, 100 nM, residues Ser-276, Ser-468 and Ser-927
Procedure: In this study, we examined the effect of Compound 50 on LPS-induced phosphorylation of the NF-κB members p65 and p105/p50. THP1 monocytic cells were stimulated with IFNγ plus LPS in the presence or absence of 100 nM Compound 50 (30 min, 1 h and 3 h) and whole-cell extracts were immunoblotted using anti-phospho p65 and p105/p50 antibodies to detect the phosphorylated forms of these proteins. […] LPS/IFNγ induced phosphorylation of p65 as early as 30 minutes on residues Ser-276, Ser-468 and […]. Compound 50 had no effect on LPS/IFNγ induced phosphorylation at these sites. […] LPS/IFNγ induced phosphorylation of p105 as early as 30 minutes on residues Ser-927 and Ser-933. Compound 50 had no effect on LPS/IFNγ induced phosphorylation at these sites.

p50 [1] = experiment: Nuclear p50 in PMA+ionomycin stimulated Jurkat T cells (immunoblot); conditions: 100 nM
p50 [2] = experiment: Western blot of THP-1 nuclear extracts: p50; conditions: IFN-γ plus LPS or IFN-γ plus SAC, remained above non-stimulated levels
Procedure: The THP-1 cell, Jurkat cell and RAW264.7 cell line were obtained from American Type Culture Collection (Manassas, Va.). The THP-1 Jurkat cells were cultured in RPMI 1640 (ATCC, Manassas, Va.), supplemented with 10% FCS (ATCC, Manassas, Va.), and 1% penicillin/Streptomycin (Gibco-BRL, New York, N.Y.). The RAW264.7 cells were cultured in DMEM (ATCC, Manassas, Va.) supplemented with 10% FCS (ATCC, Manassas, Va.), and 1% penicillin/Streptomycin (Gibco-BRL, New York, N.Y.). The cells were stimulated with human or murine recombinant IFNγ (100 ng/ml) for 10 h followed by LPS (1 μg/ml) or SAC (0.025%) CpG ([…]) in the presence or absence of Compound 50 at different concentrations for an additional incubation.
THP-1 cells were suspended in 20 volumes of buffer A containing 10 mM KCl, 10 mM HEPES (pH 7.9), 1 mM MgCl2, 1 mM dithiothreitol (DTT), 0.1% Nonidet p40 (NP-40), and 0.5 mM phenylmethylsulfonyl fluoride (PMSF) and homogenized and centrifuged at 10,000 rpm at 4C afor 5 min. […]
Of the transcription factors that have been analyzed, two factors, ICSBP and c-Rel, seem to be affected by Compound 4/Compound 50 treatment. […]

IKKβ = experiment: Phosphorylation of IKKβ in IFNγ/LPS-stimulated THP-1 cells (immunoblot); conditions: THP-1 whole cell extracts, IFNγ/LPS 5 min to 1 hr, 500 nM
Procedure: The whole cell extracts were prepared using Cell Lysis Buffer (Cell Signaling, Beverly, Mass., USA) according to the manufacture's instruction.
The phosphorylation of IKK is an early step in NF-κB activation. To determine whether Compound 50 inhibits the activation of the IKK complex, the level of phosphorylated IKKβ was investigated in drug-treated, LPS-stimulated cells. Whole cell extracts were prepared from THP-1 cells that had been stimulated with IFNγ/LPS for 5 min, 15 min 30 min and 1 hr in the either the absence or presence of 500 nM Compound 50. Phosphorylated IKKβ was determined by immunoblot analysis using an anti-phospho IKKβ antibody. […] Compound 50 treatment had no effect on the induction of phosphorylated IKKβ.

Cc1cccc(/C=N/Nc2cc(N3CCOCC3)nc(OCCc3ccccn3)n2)c1 [Compound 50, N-(3-Methyl-benzylidene)-N′-[6-morpholin-4-yl-2-(2-pyridin-2-yl-ethoxy)-pyrimidin-4-yl]-hydrazine]
nuclear Rel-B (Rel-B): slightly increased
LPS/IFNγ induced phosphorylation of p65 (p65): no effect
nuclear levels of p50 (p50 [1]): slightly reduced
nuclear p50 levels (p50 [2]): decreased slightly
induction of phosphorylated IKKβ (IKKβ): no effect
